Source: patent US20090221567A1, “MUSCARINIC RECEPTOR AGONISTS, COMPOSITIONS, METHODS OF TREATMENT THEREOF, AND PROCESSES FOR PREPARATION THEREOF 177” (ASTRAZENECA AB, priority 2008, published 2009)

target: T1, hM1 (human Muscarinic receptor subtype 1) (Homo sapiens, UniProt P11229); experiment: Human M1 calcium mobilization FLIPR assay; assay type: cell-based; settings: read-out: hM1 EC50 values
T1 construct: expressed in transfected cells; host or cells: CHO cells (Chinese hamster ovary cells, ATCC)
T1 sequence (P11229 1-460): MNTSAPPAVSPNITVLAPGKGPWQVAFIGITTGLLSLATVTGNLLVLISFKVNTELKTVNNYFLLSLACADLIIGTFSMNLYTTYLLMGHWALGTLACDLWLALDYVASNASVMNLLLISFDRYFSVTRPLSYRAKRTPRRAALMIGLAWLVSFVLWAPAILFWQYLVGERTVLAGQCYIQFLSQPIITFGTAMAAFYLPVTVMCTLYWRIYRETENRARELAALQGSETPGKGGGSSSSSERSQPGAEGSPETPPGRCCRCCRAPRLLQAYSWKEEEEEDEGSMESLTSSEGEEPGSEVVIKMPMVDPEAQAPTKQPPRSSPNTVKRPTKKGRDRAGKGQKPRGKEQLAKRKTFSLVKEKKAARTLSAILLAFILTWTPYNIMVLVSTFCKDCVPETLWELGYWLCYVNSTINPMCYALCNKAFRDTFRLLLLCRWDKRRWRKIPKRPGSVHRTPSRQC
Protocol: (§1) The compound activity in the present invention (EC50 or IC50) is measured using a 384 plate-based imaging assay that monitors drug induced intracellular Ca^2+ release in whole cells. Activation of hM1 (human Muscarinic receptor subtype 1, gene bank access NM_000738), rM1 (rat Muscarinic receptor subtype 1, gene bank access NM_080773), hM3 (human Muscarinic receptor subtype 3, gene bank access NM_000740NM_000740) and hM5 (human Muscarinic receptor subtype 5, gene bank access NM_0121258), receptors expressed in CHO cells (Chinese hamster ovary cells, ATCC) is quantified in a Molecular Devices FLIPR IITM instrument as an increase in fluorescent signal. Inhibition of hM3 and hM5 by compounds is determined by the decrease in fluorescent signal in response to 2 nM acetylcholine activation.
(§2) Prior to experiment, the cell culture medium is removed from the plates by inversion. […] Plates are incubated at 37° C. for 60 minutes prior to start the experiment. The incubation is terminated by washing the cells four times in assay buffer, leaving a residual 25 μl buffer per well. Cell plates are then transferred to the FLIPR, ready for compound additions.
(§3) The day of experiment, acetylcholine and compounds are diluted in assay buffer in three-fold concentration range (10 points serial dilution) for addition by FLIPR instrument. For all calcium assays, a baseline reading is taken for 10 seconds followed by the addition of 12.5 μl of compounds, resulting in a total well volume of 37.5 μl. Data is collected every second for 60 pictures and then every 6 seconds for 20 pictures prior to the addition of agonist. For hM3 and hM5, before agonist addition, a second baseline reading is taken for 10 seconds followed by the addition of 12.5 μl of agonist or buffer, producing a final volume of 50 μl. After agonist stimulation, the FLIPR continues to collect data every second for 60 pictures and then every 6 seconds for 20 pictures. The fluorescence emission is read using filter 1 (emission 510-570 nm) by the FLIPR on board CCD camera.
(§4) Calcium mobilization output data are calculated as the maximal relative fluorescence unit (RFU) minus the minimal value for both compound and agonist reading frame (except for hM1 and rM1 using only the maximal RFU). Data are analyzed using sigmoidal fits of a non-linear curve-fitting program (XLfit version 4.2.2 Excel add-in version 4.2.2 build 18 math 1Q version 2.1.2 build 18). All pEC50 and pIC50 values are reported as arithmetic means±standard error of mean of ‘n’ independent experiments.

Compound | EC50
Cc1ccccc1C(=O)N1CCC(N2CCC(N3C(=O)OC[C@H]4CCCC[C@@H]43)CC2)CC1 [(4aS,8aS)-1-[1-[1-(2-methylbenzoyl)-4-piperidyl]-4-piperidyl]-4a,5,6,7,8,8a-hexahydro-4H-benzo[d][1,3]oxazin-2-one] | > 2890 nM
CC(C)OC(=O)N1CCC(C)(N2CCC(N3C(=O)CN[C@H]4CCCC[C@@H]43)CC2)CC1 [isopropyl 4-[4-[(4aS,8aS)-2-oxo-3,4,4a,5,6,7,8,8a-octahydroquinoxalin-1-yl]-1-piperidyl]-4-methyl-piperidine-1-carboxylate] | > 2890 nM
CC(C)OC(=O)N1CCC(C)(N2CCC(N3C(=O)CO[C@H]4CCCC[C@@H]43)CC2)CC1 [isopropyl 4-[4-[(4aS, 8aS)-3-oxo-4a,5,6,7,8,8a-hexahydrobenzo[b][1,4]oxazin-4-yl]-1-piperidyl]-4-methyl-piperidine-1-carboxylate] | > 2890 nM
CC(C)OC(=O)N1CC[C@H](N2CCC(N3C(=O)CO[C@H]4CCCC[C@@H]43)CC2)C1 [isopropyl (3S)-3-[4-[(4aS,8aS)-3-oxo-4a,5,6,7,8,8a-hexahydrobenzo[b][1,4]oxazin-4-yl]-1-piperidyl]pyrrolidine-1-carboxylate] | > 2890 nM
COC(=O)N1CCC(N2CCC(N3C(=O)OC[C@H]4CCCC[C@@H]43)CC2)CC1 [methyl 4-[4-[(4aS,8aS)-2-oxo-4a,5,6,7,8,8a-hexahydro-4H-benzo[d][1,3]oxazin-1-yl]-1-piperidyl]piperidine-1-carboxylate] | > 2890 nM
CC(C)(C)OC(=O)N1CCC(N2CCC(N3C(=O)OC[C@@H]4CCCC[C@H]43)CC2)CC1 [tert-butyl 4-[4-[(4aR,8aR)-2-oxo-4a,5,6,7,8,8a-hexahydro-4H-benzo[d][1,3]oxazin-1-yl]-1-piperidyl]piperidine-1-carboxylate] | > 2890 nM
CC(C)(C)OC(=O)N1CCC(N2CCC(N3C(=O)CO[C@H]4CCCC[C@@H]43)CC2)CC1 [tert-butyl 4-[4-[(4aS,8aS)-3-oxo-4a,5,6,7,8,8a-hexahydrobenzo[b][1,4]oxazin-4-yl]-1-piperidyl]piperidine-1-carboxylate] | > 2890 nM

same assay, conditions: receptor expressed in CHO cells, intracellular Ca2+ release; read-out: hM1 EC50

Compound | EC50
COc1ccsc1C(=O)N1CCC(N2CCC(N3C(=O)OC[C@H]4CCCC[C@@H]43)CC2)CC1 (racemic) [Example 17, (±)(trans)-10-[1-[1-(3-methoxythiophene-2-carbonyl)-4-piperidyl]-4-piperidyl]-8-oxa-10-azabicyclo[4.4.0]decan-9-one] | 270 nM
CCOC(=O)N1CCC(N2CCC(N3C(=O)NC[C@H]4CCCC[C@@H]43)CC2)C1 (stereo partly drawn) [Example 5, ethyl 3-[4-[(4aR,8aS)-2-oxo-3,4,4a,5,6,7,8,8a-octahydroquinazolin-1-yl]-1-piperidyl]pyrrolidine-1-carboxylate] | 31 nM
CC(C)OC(=O)N1CCC(N2CCC(N3C(=O)OC[C@H]4CCCC[C@@H]43)CC2)CC1 [Example 16, Propan-2-yl 4-[4-[(1S,6S)-9-oxo-8-oxa-10-azabicyclo[4.4.0]dec-10-yl]-1-piperidyl]piperidine-1-carboxylate] | 220 nM

target: T2, hM3 (human Muscarinic receptor subtype 3) (Homo sapiens, UniProt P20309); experiment: Human M3 calcium mobilization FLIPR assay; assay type: cell-based; settings: receptor expressed in CHO cells, intracellular Ca2+ release
T2 construct: expressed in transfected cells; host or cells: CHO cells (Chinese hamster ovary cells, ATCC)
T2 sequence (P20309 whole entry): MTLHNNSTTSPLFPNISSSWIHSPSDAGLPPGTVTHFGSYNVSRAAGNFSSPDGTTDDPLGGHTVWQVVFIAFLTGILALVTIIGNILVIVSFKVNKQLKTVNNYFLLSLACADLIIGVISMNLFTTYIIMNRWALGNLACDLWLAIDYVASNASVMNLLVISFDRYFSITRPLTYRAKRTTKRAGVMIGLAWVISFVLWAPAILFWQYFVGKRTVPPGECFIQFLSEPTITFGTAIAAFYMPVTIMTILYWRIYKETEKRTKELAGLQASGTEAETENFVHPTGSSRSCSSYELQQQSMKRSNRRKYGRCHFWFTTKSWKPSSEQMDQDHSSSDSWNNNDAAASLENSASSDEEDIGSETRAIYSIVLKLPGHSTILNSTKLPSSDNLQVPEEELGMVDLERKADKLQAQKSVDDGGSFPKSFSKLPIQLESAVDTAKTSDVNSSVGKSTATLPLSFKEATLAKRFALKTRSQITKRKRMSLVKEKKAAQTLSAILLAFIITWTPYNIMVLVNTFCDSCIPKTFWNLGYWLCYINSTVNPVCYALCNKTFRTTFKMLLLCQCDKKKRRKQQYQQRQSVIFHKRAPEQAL
Protocol: as §1, §2, §3, §4

Compound | EC50
COc1ccsc1C(=O)N1CCC(N2CCC(N3C(=O)OC[C@H]4CCCC[C@@H]43)CC2)CC1 (racemic) [Example 17, (±)(trans)-10-[1-[1-(3-methoxythiophene-2-carbonyl)-4-piperidyl]-4-piperidyl]-8-oxa-10-azabicyclo[4.4.0]decan-9-one] | > 40000 nM

target: T3, hM5 (human Muscarinic receptor subtype 5) (Homo sapiens, UniProt P08912); experiment: Human M5 calcium mobilization FLIPR assay; assay type: cell-based; settings: receptor expressed in CHO cells, intracellular Ca2+ release
T3 construct: expressed in transfected cells; host or cells: CHO cells (Chinese hamster ovary cells, ATCC)
T3 sequence (P08912 1-532): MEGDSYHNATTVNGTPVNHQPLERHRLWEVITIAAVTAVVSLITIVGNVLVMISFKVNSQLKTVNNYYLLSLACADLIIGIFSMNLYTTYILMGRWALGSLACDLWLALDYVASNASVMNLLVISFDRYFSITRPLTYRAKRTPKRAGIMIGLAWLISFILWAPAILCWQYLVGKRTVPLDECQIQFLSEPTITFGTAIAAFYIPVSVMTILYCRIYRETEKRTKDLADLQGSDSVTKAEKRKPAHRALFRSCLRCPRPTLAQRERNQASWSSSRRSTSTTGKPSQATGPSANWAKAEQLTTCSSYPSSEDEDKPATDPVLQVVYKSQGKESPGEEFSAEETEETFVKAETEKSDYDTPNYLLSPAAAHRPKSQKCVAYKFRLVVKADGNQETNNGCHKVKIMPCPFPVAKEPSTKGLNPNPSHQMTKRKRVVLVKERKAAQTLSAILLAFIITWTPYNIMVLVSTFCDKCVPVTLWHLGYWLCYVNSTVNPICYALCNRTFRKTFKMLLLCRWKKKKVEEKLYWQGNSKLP
Protocol: as §1, §2, §3, §4

Compound | EC50
COc1ccsc1C(=O)N1CCC(N2CCC(N3C(=O)OC[C@H]4CCCC[C@@H]43)CC2)CC1 (racemic) [Example 17, (±)(trans)-10-[1-[1-(3-methoxythiophene-2-carbonyl)-4-piperidyl]-4-piperidyl]-8-oxa-10-azabicyclo[4.4.0]decan-9-one] | > 40000 nM
